Like-named read-outs stand apart in the source and are kept apart here.
How the values were obtained:
[1] = test system: L1210 murine leukemia cell line; assay: cell growth inhibition in a cytotoxic assay with L1210; assay type: cell-based
[2] = test system: L1210 murine leukemia cells; assay: in vivo antitumor model, L1210 cells implanted ip into mice
[3] = test system: L1210 murine leukemia cells; conditions: previously established; cited from earlier work
[4] = human plasma
[5] = test system: DNA; assay: DNA alkylation in cell-free systems; assay type: biochemical
[6] = chemical reactivity/stability under acidic, basic and nucleophilic conditions; assay type: physicochemical
[7] = test system: L1210 murine leukemia cell line; conditions: natural enantiomer; cited from earlier work

Nc1cccc2c1C(=O)C=C1N(C(=O)c3cc4cc(NC(=O)c5cc6ccccc6[nH]5)ccc4[nH]3)CC3CC123 (racemic) [(±)-20, N-(2-(5-Amino-4-oxo-1,2,9,9a-tetrahydrocyclopropa[c]benzo[e]indole-2-carbonyl)-1H-indol-5-yl)-1H-indole-2-carboxamide]
fold less active than 4 (active enantiomer of 20) ([1]; L1210, inferred for the active enantiomer from the racemate): 3–4 fold

O=C1Nc2cccc3c4c(cc(c23)O1)N(C(=O)c1cc2cc(NC(=O)c3cc5ccccc5[nH]3)ccc2[nH]1)CC4CCl (single isomer, unassigned; (+)) [(+)-6, N-(2-(10-(Chloromethyl)-5-oxo-5,8,9,10-tetrahydro-4H-pyrrolo[3',2':5,6]naphtho[1,8-de][1,3]oxazine-8-carbonyl)-1H-indol-5-yl)-1H-indole-2-carboxamide]
long term cures (>250 days) ([2]; 9000 μg/kg ip on days 1, 5, 9): 5/10 | antitumor activity over dose range ([2]; 300 to 9000 μg/kg ip on days 1, 5, 9 (30-fold range)): productive antitumor activity over the entire and much larger dose range examined

O=C(Nc1ccc2[nH]c(C(=O)N3C[C@H](CCl)c4c3cc(O)c3ccccc43)cc2c1)c1cc2ccccc2[nH]1 [Compound 4, seco-CBI-indole2]
IC50 ([1]; Mus musculus, L1210, L1210 cell line): 0.03 nM | optimal dose range [3]: 0.06 to 0.1 mg/kg | T/C (percent survival) ([2]; 60 μg/kg ip on days 1, 5, 9): 197 | long term (250 days) survivors ([2]; 60 μg/kg ip on days 1, 5, 9): 1/10 | toxicity (premature death of the animals) ([2]; doses of 100–500 μg/kg ip on days 1, 5, 9): toxic

O=C1Nc2cccc3c4c(cc(c23)O1)N(C(=O)c1cc2cc(NC(=O)c3cc5ccccc5[nH]3)ccc2[nH]1)CC4CCl (centres unmarked) [Compound 6, N-(2-(10-(Chloromethyl)-5-oxo-5,8,9,10-tetrahydro-4H-pyrrolo[3',2':5,6]naphtho[1,8-de][1,3]oxazine-8-carbonyl)-1H-indol-5-yl)-1H-indole-2-carboxamide]
times more potent than its N-Boc precursor 16 ([1]; L1210, relative to 16): 100 to 1000 times | free drug release [4]: 5% | DNA alkylation [5]: incapable of alkylating DNA | stability under acidic conditions ([6]; 1:1 TFA:CH2Cl2, 4 N HCl in EtOAc, up to 72 h at 23 °C): stable

CC(C)(C)OC(=O)N1C[C@@H](CCl)c2c1cc1c3c(cccc23)NC(=O)O1 [Compound 16, tert-Butyl 10-(Chloromethyl)-5-oxo-9,10-dihydro-4H-pyrrolo[3',2':5,6]naphtho[1,8-de][1,3]oxazine-8(5H)-carboxylate]
fold less active than N-Boc-CBI ([1]; L1210, relative to N-Boc-CBI): 50–100 fold | stability of cyclic carbamate to hydrolysis under acidic conditions ([6]; 1:1 TFA:CH2Cl2, 4 N HCl in EtOAc, 48 h at 23 °C): stable | stability to nucleophiles BnSH and BnOH ([6]; 100 equiv in MeOH and THF at 23 °C for 48 h): completely stable | stability to BnNH2 in MeOH ([6]; BnNH2 (100 equiv) in MeOH, 24 h): rapidly cleaved | stability to BnNH2 in THF ([6]; BnNH2 in THF): stable | hydrolysis of cyclic carbamate with NaHCO3 ([6]; NaHCO3 in protic solvents): slowly hydrolyzed | stability to organic bases ([6]; organic bases in aprotic solvents): stable

CC(C)(C)OC(=O)N1C[C@H]2C[C@@]23C1=CC(=O)c1ccccc13 [N-Boc-CBI]
IC50 [7]: 80 nM
